Measurements published in patent US20190343908A1, “Therapeutic Combination for the Treatment of Cancer” (Nerium Biotechnology Inc., priority 2011, published 2019).

Columns and labels:
[1] = system: COLO699N lung cancer cell line; assay: Methyl-Tetrazolium viability assay, COLO699N; format: cell-based, human; set-up: key to MTT Average: absorbance (optical density) at 570 nm, second wavelength subtracted; details: for Average MTT 24 h / Average MTT 48 h / Average MTT 72 h: COLO699N Run 1; for ABSORBANCE: COLO699N, 0.1 μg/mL cisplatin
Description: (§1) Three different viability assays were chosen to complement each other and yielded results dependent on concentration and cell line: the Methyl Tetrazolium dye assay, the Sulforhodamine B fluorescent dye assay, and the Crystal Violet dye assay.
(§2) The Methyl-Tetrazolium dye assay measures the activity of enzymes in mitochondria. The dye precursor is taken up by cells, where it undergoes reduction to the purple formazan. It measures only the mitochondrial activity and, thus, it is not always a reliable indication of whether the cells themselves are alive or dead, since even a recently dead cell has […] enzyme activity in mitochondria. Intracellular glucose concentration, pH, and time before assay all affect the measurements.
(§3) The Methyl Tetrazolium, Sulforhodamine B, and Crystal Violet assays were used to assess cell viabilities. The incubation times were 24 hours, 48 hours, and 72 hours. The Nerium oleander extract Anvirzel™ (a hot water extract of oleander obtained from Salud Integral, Honduras) was tested in concentrations ranging from 0.01 ng/mL to 10 ng/mL.
(§4) Cells were detached by trypsinization (Trypsin-0.25% EDTA, Invitrogen, 25200-072) during the logarithmic phase of culture growth and plated in 96-well plates (18.000 cells/well) (Corning, Costar 359) in a final volume of 200 μl of medium per well. […] The absorbance was measured after 24 hours, 48 hours, and 72 hours of incubation.
(§5) For the Methyl-Tetrazolium assay, the dye (Sigma, M2128; 5 mg/mL, diluted in phosphate-buffered saline) was added to each well and plates were incubated for 3 hours at 37° C. After the end of the incubation period, the medium was discarded and the cells were rinsed with phosphate-buffered saline. Finally, the formazan crystals were dissolved in dimethylsulphoxide (Sigma, D4540).
(§6) The optical density of each plate was measured on a μQuant spectrophotometer and the data were analyzed with Gen5 software (μQuant Biomolecular Spectrophotometer MQX200 and Gen5™ Microplate Data Collection & Analysis software, BioTek® Instruments. Inc, April 2008). Absorbance was measured at 570 nm for all assays and a second wavelength was measured in order to subtract noise. For the Methyl-Tetrazolium assay this second wavelength was 630 nm and for the Sulforhodamine B and Crystal Violet assays it was 690 nm.

[2] = system: T47D (human breast cancer); assay: Methyl-Tetrazolium viability assay, T47D; format: cell-based; set-up: key: absorbance (optical density) at 570 nm, second wavelength subtracted
Description: as §1, §2, §3, §4, §5, §6

[3] = system: MCF-7 (human breast cancer); assay: Methyl-Tetrazolium viability assay, MCF-7; format: cell-based; set-up: key: absorbance (optical density) at 570 nm, second wavelength subtracted
Description: as §1, §2, §3, §4, §5, §6

N.N.[Cl][Pt][Cl] [cisplatin]
Average MTT 24 h ([1]; 0.1 μg/ml CDDP): 0.122
Average MTT 48 h ([1]; 0.1 μg/ml CDDP, 48 h): 0.179
Average MTT 72 h ([1]; 0.1 μg/ml CDDP, 72 h): 0.237
Average MTT 24 h ([1]; 1 μg/ml CDDP): 0.023
Average MTT 48 h ([1]; 1 μg/ml CDDP, 48 h): 0.016
Average MTT 72 h ([1]; 1 μg/ml CDDP, 72 h): 0.019
Average MTT 24 h ([1]; 10 μg/ml CDDP): 0.384
Average MTT 48 h ([1]; 10 μg/ml CDDP, 48 h): 0.012
Average MTT 72 h ([1]; 10 μg/ml CDDP, 72 h): 0.016
Average MTT 24 h ([1]; 100 μg/ml CDDP): 0.033
Average MTT 48 h ([1]; 100 μg/ml CDDP, 48 h): 0.011
Average MTT 72 h ([1]; 100 μg/ml CDDP, 72 h): 0.014
ABSORBANCE ([1]; 48 h): 0.636
ABSORBANCE ([1]; 72 h): 0.73
MTT Average ([1]; Run 2, 24 h, 0.1 μg/ml CDDP): 0.362
MTT Average ([1]; Run 2, 24 h, 1 μg/ml CDDP): 0.055
MTT Average ([1]; Run 2, 24 h, 10 μg/ml CDDP): 0.178
MTT Average ([1]; Run 2, 24 h, 100 μg/ml CDDP): 0.04
MTT Average ([1]; Run 2, 48 h, 0.1 μg/ml CDDP): 0.636
MTT Average ([1]; Run 2, 48 h, 1 μg/ml CDDP): 0.04
MTT Average ([1]; Run 2, 48 h, 10 μg/ml CDDP): 0.049
MTT Average ([1]; Run 2, 48 h, 100 μg/ml CDDP): 0.018
MTT Average ([1]; Run 2, 72 h, 0.1 μg/ml CDDP): 0.73
MTT Average ([1]; Run 2, 72 h, 1 μg/ml CDDP): 0.044
MTT Average ([1]; Run 2, 72 h, 10 μg/ml CDDP): 0.057
MTT Average ([1]; Run 2, 72 h, 100 μg/ml CDDP): 0.068
MTT Average ([1]; Run 3, 24 h, 0.1 μg/ml CDDP): 0.365
MTT Average ([1]; Run 3, 24 h, 1 μg/ml CDDP): 0.04
MTT Average ([1]; Run 3, 24 h, 10 μg/ml CDDP): 0.148
MTT Average ([1]; Run 3, 24 h, 100 μg/ml CDDP): 0.041
MTT Average ([1]; Run 3, 48 h, 0.1 μg/ml CDDP): 0.442
MTT Average ([1]; Run 3, 48 h, 1 μg/ml CDDP): 0.063
MTT Average ([1]; Run 3, 48 h, 10 μg/ml CDDP): 0.041
MTT Average ([1]; Run 3, 48 h, 100 μg/ml CDDP): 0.025
MTT Average ([1]; Run 3, 72 h, 0.1 μg/ml CDDP): 0.638
MTT Average ([1]; Run 3, 72 h, 1 μg/ml CDDP): 0.078
MTT Average ([1]; Run 3, 72 h, 10 μg/ml CDDP): 0.026
MTT Average ([1]; Run 3, 72 h, 100 μg/ml CDDP): 0.027
MTT Average ([2]; T47D Run 1, 24 h, 0.1 μg/ml CDDP): 0.166
MTT Average ([2]; T47D Run 1, 24 h, 1 μg/ml CDDP): 0.033
MTT Average ([2]; T47D Run 1, 24 h, 10 μg/ml CDDP): 0.046
MTT Average ([2]; T47D Run 1, 24 h, 100 μg/ml CDDP): 0.045
MTT Average ([2]; T47D Run 1, 48 h, 1 μg/ml CDDP): 0.039
MTT Average ([2]; T47D Run 1, 48 h, 10 μg/ml CDDP): 0.044
MTT Average ([2]; T47D Run 1, 48 h, 100 μg/ml CDDP): 0.038
MTT Average ([2]; T47D Run 1, 72 h, 0.1 μg/ml CDDP): 0.336
MTT Average ([2]; T47D Run 1, 72 h, 1 μg/ml CDDP): 0.04
MTT Average ([2]; T47D Run 1, 72 h, 10 μg/ml CDDP): 0.05
MTT Average ([2]; T47D Run 1, 72 h, 100 μg/ml CDDP): 0.049
MTT Average ([2]; T47D Run 2, 24 h, 0.1 μg/ml CDDP): 0.181
MTT Average ([2]; T47D Run 2, 24 h, 1 μg/ml CDDP): 0.051
MTT Average ([2]; T47D Run 2, 24 h, 10 μg/ml CDDP): 0.07
MTT Average ([2]; T47D Run 2, 24 h, 100 μg/ml CDDP): 0.051
MTT Average ([2]; T47D Run 2, 48 h, 0.1 μg/ml CDDP): 0.262
MTT Average ([2]; T47D Run 2, 48 h, 1 μg/ml CDDP): 0.052
MTT Average ([2]; T47D Run 2, 48 h, 10 μg/ml CDDP): 0.066
MTT Average ([2]; T47D Run 2, 48 h, 100 μg/ml CDDP): 0.054
MTT Average ([2]; T47D Run 2, 72 h, 0.1 μg/ml CDDP): 0.397
MTT Average ([2]; T47D Run 2, 72 h, 1 μg/ml CDDP): 0.046
MTT Average ([2]; T47D Run 2, 72 h, 10 μg/ml CDDP): 0.041
MTT Average ([2]; T47D Run 2, 72 h, 100 μg/ml CDDP): 0.037
MTT Average ([2]; T47D Run 3, 24 h, 1 μg/ml CDDP): 0.033
MTT Average ([2]; T47D Run 3, 24 h, 10 μg/ml CDDP): 0.074
MTT Average ([2]; T47D Run 3, 24 h, 100 μg/ml CDDP): 0.047
MTT Average ([2]; T47D Run 3, 48 h, 0.1 μg/ml CDDP): 0.261
MTT Average ([2]; T47D Run 3, 48 h, 1 μg/ml CDDP): 0.047
MTT Average ([2]; T47D Run 3, 48 h, 10 μg/ml CDDP): 0.077
MTT Average ([2]; T47D Run 3, 48 h, 100 μg/ml CDDP): 0.051
MTT Average ([2]; T47D Run 3, 72 h, 0.1 μg/ml CDDP): 0.371
MTT Average ([2]; T47D Run 3, 72 h, 1 μg/ml CDDP): 0.035
MTT Average ([2]; T47D Run 3, 72 h, 10 μg/ml CDDP): 0.057
MTT Average ([2]; T47D Run 3, 72 h, 100 μg/ml CDDP): 0.035
MTT Average ([3]; MCF-7, Run 2, 24 h, 0.1 μg/ml CDDP): 0.263
MTT Average ([3]; MCF-7, Run 2, 24 h, 1 μg/ml CDDP): 0.027
MTT Average ([3]; MCF-7, Run 2, 24 h, 10 μg/ml CDDP): 0.124
MTT Average ([3]; MCF-7, Run 2, 24 h, 100 μg/ml CDDP): 0.029
MTT Average ([3]; MCF-7, Run 2, 48 h, 0.1 μg/ml CDDP): 0.37
MTT Average ([3]; MCF-7, Run 2, 48 h, 1 μg/ml CDDP): 0.025
MTT Average ([3]; MCF-7, Run 2, 48 h, 10 μg/ml CDDP): 0.045
MTT Average ([3]; MCF-7, Run 2, 48 h, 100 μg/ml CDDP): 0.029
MTT Average ([3]; MCF-7, Run 2, 72 h, 0.1 μg/ml CDDP): 0.39
MTT Average ([3]; MCF-7, Run 2, 72 h, 1 μg/ml CDDP): 0.038
MTT Average ([3]; MCF-7, Run 2, 72 h, 10 μg/ml CDDP): 0.028
MTT Average ([3]; MCF-7, Run 2, 72 h, 100 μg/ml CDDP): 0.013
MTT Average ([3]; MCF-7, Run 3, 24 h, 0.1 μg/ml CDDP): 0.516
MTT Average ([3]; MCF-7, Run 3, 24 h, 1 μg/ml CDDP): 0.039
MTT Average ([3]; MCF-7, Run 3, 24 h, 10 μg/ml CDDP): 0.135
MTT Average ([3]; MCF-7, Run 3, 24 h, 100 μg/ml CDDP): 0.026
MTT Average ([3]; MCF-7, Run 3, 48 h, 0.1 μg/ml CDDP): 0.525
MTT Average ([3]; MCF-7, Run 3, 48 h, 1 μg/ml CDDP): 0.041
MTT Average ([3]; MCF-7, Run 3, 48 h, 10 μg/ml CDDP): 0.03
MTT Average ([3]; MCF-7, Run 3, 48 h, 100 μg/ml CDDP): 0.032
MTT Average ([3]; MCF-7, Run 3, 72 h, 0.1 μg/ml CDDP): 0.546
MTT Average ([3]; MCF-7, Run 3, 72 h, 1 μg/ml CDDP): 0.035
MTT Average ([3]; MCF-7, Run 3, 72 h, 10 μg/ml CDDP): 0.032
MTT Average ([3]; MCF-7, Run 3, 72 h, 100 μg/ml CDDP): 0.018
MTT Average ([3]; MCF-7 Run 1, 24 h, 0.1 μg/ml CDDP): 0.574
MTT Average ([3]; MCF-7 Run 1, 24 h, 1 μg/ml CDDP): 0.066
MTT Average ([3]; MCF-7 Run 1, 24 h, 10 μg/ml CDDP): 0.194
MTT Average ([3]; MCF-7 Run 1, 24 h, 100 μg/ml CDDP): 0.034
MTT Average ([3]; MCF-7 Run 1, 48 h, 0.1 μg/ml CDDP): 0.719
MTT Average ([3]; MCF-7 Run 1, 48 h, 1 μg/ml CDDP): 0.051
MTT Average ([3]; MCF-7 Run 1, 48 h, 10 μg/ml CDDP): 0.069
MTT Average ([3]; MCF-7 Run 1, 48 h, 100 μg/ml CDDP): 0.025
MTT Average ([3]; MCF-7 Run 1, 72 h, 0.1 μg/ml CDDP): 0.788
MTT Average ([3]; MCF-7 Run 1, 72 h, 1 μg/ml CDDP): 0.048
MTT Average ([3]; MCF-7 Run 1, 72 h, 10 μg/ml CDDP): 0.047
MTT Average ([3]; MCF-7 Run 1, 72 h, 100 μg/ml CDDP): 0.023
